Tests used:
[1] = refractive index (Na D-line) (dimensionless); xn = mol fraction of the nth substance listed; settings: 298.15 K, 101 kPa, Liquid, Standard Abbe refractometry
[2] = xn = mol fraction of the nth substance listed; settings: 298.15 K, 101 kPa, Liquid
[3] = refractive index (Na D-line) (dimensionless); settings: 298.15 K; 101.33 kPa; Liquid; Standard Abbe refractometry
[4] = 298.15 K; 101.33 kPa; Liquid

CCCCn1cc[n+](C)c1.COS(=O)(=O)[O-] [1-butyl-3-methylimidazolium methyl sulfate] + OCCO
Settings | mass density, [2] [kg/m3] | refractive index, [1]
x1 = 0.0341 | 1195.09 | 1.4334
x1 = 0.0854 | 1115.82 | 1.4373
x1 = 0.1079 | 1172.89 | 1.439
x1 = 0.1946 | 1123.61 | 1.4449
x1 = 0.2446 | 1170.78 | 1.4479
x1 = 0.2999 | 1126.01 | 1.4511
x1 = 0.353 | 1164.56 | 1.454
x1 = 0.4399 | 1138.05 | 1.4582
x1 = 0.5061 | 1150.15 | 1.4616
x1 = 0.5299 | 1188.48 | 1.4625
x1 = 0.636 | 1143.98 | 1.4672
x1 = 0.717 | 1155.76 | 1.4703
x1 = 0.8055 | 1182.08 | 1.4735
x1 = 0.907 | 1201.87 | 1.4768

CCO [ethanol]
Settings | mass density [kg/m3] | refractive index
[3] | – | 1.3593
[4] | 785.18 | –

CCCCn1cc[n+](C)c1.COS(=O)(=O)[O-] [1-butyl-3-methylimidazolium methyl sulfate] + C[N+](=O)[O-]
Settings | mass density, [2] [kg/m3] | refractive index, [1]
x1 = 0.0398 | 1146.67 | 1.3953
x1 = 0.1021 | 1161.66 | 1.4128
x1 = 0.1433 | 1168.87 | 1.4218
x1 = 0.1988 | 1176.21 | 1.4316
x1 = 0.2444 | 1180.95 | 1.4382
x1 = 0.2998 | 1185.58 | 1.4449
x1 = 0.3979 | 1191.69 | 1.4541
x1 = 0.4786 | 1195.47 | 1.4596
x1 = 0.5652 | 1198.52 | 1.4648
x1 = 0.7127 | 1202.66 | 1.4714
x1 = 0.8212 | 1204.74 | 1.4748
x1 = 0.8546 | 1205.4 | 1.4758

CCCCn1cc[n+](C)c1.F[B-](F)(F)F [1-butyl-3-methylimidazolium tetrafluoroborate] + CCO
Settings | mass density, [2] [kg/m3] | refractive index, [1]
x1 = 0.0517 | 850.45 | 1.3703
x1 = 0.0918 | 891.63 | 1.3767
x1 = 0.1995 | 976.13 | 1.3898
x1 = 0.2495 | 1007.41 | 1.3943
x1 = 0.2518 | 1042.9 | 1.3946
x1 = 0.3228 | 1081.97 | 1.3998
x1 = 0.4219 | 1117.11 | 1.4058
x1 = 0.5356 | 1138.94 | 1.4105
x1 = 0.6244 | 1156.56 | 1.4137
x1 = 0.709 | 1177.74 | 1.4161
x1 = 0.8295 | 1192.74 | 1.4188

CCCCn1cc[n+](C)c1.COS(=O)(=O)[O-] [1-butyl-3-methylimidazolium methyl sulfate]
Settings | mass density [kg/m3] | refractive index
[3] | – | 1.4794
[4] | 1207.75 | –

CCCCn1cc[n+](C)c1.COS(=O)(=O)[O-] [1-butyl-3-methylimidazolium methyl sulfate] + CCO
Settings | mass density, [2] [kg/m3] | refractive index, [1]
x1 = 0.0459 | 850.62 | 1.3791
x1 = 0.0987 | 909.24 | 1.3956
x1 = 0.142 | 948.07 | 1.4067
x1 = 0.1905 | 984.34 | 1.417
x1 = 0.2357 | 1012.98 | 1.4253
x1 = 0.2733 | 1033.54 | 1.4314
x1 = 0.3516 | 1069.63 | 1.4414
x1 = 0.4381 | 1101.3 | 1.4503
x1 = 0.5335 | 1129.08 | 1.4581
x1 = 0.5712 | 1138.45 | 1.4609
x1 = 0.6742 | 1160.39 | 1.4667
x1 = 0.7665 | 1176.77 | 1.4715
x1 = 0.8482 | 1188.91 | 1.4745
x1 = 0.9248 | 1199.03 | 1.4772

ClCCCCl [1,3-dichloropropane]
Settings | mass density [kg/m3] | refractive index
[3] | – | 1.446
[4] | 1179.1 | –

OCCO [1,2-ethanediol]
Settings | refractive index
[3] | 1.4304

CCCCn1cc[n+](C)c1.F[B-](F)(F)F [1-butyl-3-methylimidazolium tetrafluoroborate] + OCCO
Settings | mass density, [2] [kg/m3] | refractive index, [1]
x1 = 0.0517 | 1123.11 | 1.4287
x1 = 0.138 | 1138.78 | 1.4261
x1 = 0.1928 | 1146.51 | 1.425
x1 = 0.2567 | 1154.22 | 1.424
x1 = 0.3 | 1158.72 | 1.4235
x1 = 0.3324 | 1161.86 | 1.4231
x1 = 0.402 | 1167.89 | 1.4226
x1 = 0.4162 | 1168.98 | 1.4225
x1 = 0.4997 | 1175.1 | 1.4219
x1 = 0.5803 | 1180.22 | 1.4216
x1 = 0.632 | 1183.29 | 1.4215
x1 = 0.696 | 1186.82 | 1.4215
x1 = 0.8045 | 1192.48 | 1.4215
x1 = 0.9083 | 1197.33 | 1.4217

CCCCn1cc[n+](C)c1.F[B-](F)(F)F [1-butyl-3-methylimidazolium tetrafluoroborate]
Settings | mass density [kg/m3] | refractive index
[3] | – | 1.4219
[4] | 1201.41 | –

From the NIST ThermoML archive (doi:10.1016/j.jct.2008.01.023)
